The values below come from patent US20240376094A2, “SELECTIVE BCL-XL PROTAC COMPOUNDS AND METHODS OF USE” (Les Laboratoires Servier, priority 2021, published 2024).

The target in test [1] is T1, Bcl-xL (Homo sapiens, UniProt Q07817).
T1 construct: Measured levels of Bcl-xL protein of HCT116 cells treated with the tested compounds; host or cells: HCT116
The test is described as follows: HCT116 Bcl-xL degradation, capillary-based immunoassay (WES). Format: cell-based. The note with it: for DC50: HCT116, 24 h, 9-point serial dilution; for remaining activity at 0.01 µM / remaining activity at 0.1 µM: HCT-116, 24 h, % of untreated cells; for remaining activity at 0.01 µM: HCT116, 10 nM; for remaining activity at 0.1 µM: HCT116, 100 nM. The method, then:
HCT116 cells were purchased from ATCC and cultivated in RPMI 1640 supplemented with 10% heat inactivated fetal bovine serum, penicillin (100 IU/mi), streptomycin (100 μg/ml) and L-glutamine (2 mM). Cells were cultured at 37° C. in a humidified atmosphere containing 5% CO2. Cells were seeded in 96 microwell plates, 24 h later cells were treated with compounds (2-point 10/100 nM and/or 9-point serial dilution to determine DC50; quadruplicates) during 24 h and harvested in lysis buffer containing 10 mM Hepes (pH 7.5), 150 mM KCl, 5 mM MgCl2, 1 mM EDTA, 0.4% TritonX100, protease and phosphatase inhibitors cocktails (Calbiochem).
Protein concentration in the supernatants was determined using the Pierce BCA protein assay kit (Thermo Fisher Scientific). Lysates (1.5 μg/μL) were analyzed using an automated capillary electrophoresis WES system with 2-40 kDa Wes Separation Module (25 capillary cartridges, Proteinsimple), in accordance with the manufacturer's protocols. Antibodies against the following proteins were used: Bcl-xL (#2764, Cell Signaling Technology, 1:50) and cofilin (#5175, Cell Signaling Technology, 1:1000). Signals were detected with an HRP-conjugated secondary anti-rabbit antibody (#042-206, Proteinsimple) and were quantified using Compass software (version 4.0, Proteinsimple).
Bcl-xL level was calculated by normalizing Bcl-xL values to cofilin and expressed as a percentage of the normalized value of the untreated cells. DC50 were calculated using standard four-parametric curve fitting. DC50 is defined as the compound concentration at which Bcl-xL is reduced to 50% of that measured for the control. Measured levels of Bcl-xL protein of HCT116 cells treated with the tested compounds at 2-point 10 nM/100 nM and/or 9-point for DC50 determination are shown in Table 15.

For test [2], the system named is MOLT-4 cells. The test is described as follows: MOLT-4 cell viability, CTG assay. The format is cell-based. The note with it: Homo sapiens, MOLT-4, 48 h. The text has this:
The MTT colorimetric assay is based on the mitochondrial reduction of tetrazolium salt by living cells. The viable cell number is proportional to the production of formazan salts, which can be read spectrophotometrically at 540 nm. The CTG luminescent assay (CellTiter GLO, Promega) is based on a reagent which lyses cells and measures total adenosine triphosphate (ATP) content. The viable cell number is proportional to the production of ATP.
MOLT-4 cells were purchased from ATCC and cultivated in RPMI 1640 supplemented with 10% heat inactivated fetal bovine serum, penicillin (100 IU/mi), streptomycin (100 μg/ml) and L-glutamine (2 mM). Cells were cultured at 37° C. in a humidified atmosphere containing 5% […].
For CTG assay, cells were seeded in 384 microwell plates (40 μL per well) and exposed to the compounds for 48 h (11-point serial dilution with 5-fold factor, triplicates). At the end of incubation time, 40 μL of CTG solution were added per well. Wells were mixed thoroughly, and plates were incubated at room temperature for 10 minutes to stabilize luminescent signals prior to reading using a luminescence reader (PHERAStar FSX Reader, BMG Labtech).
IC50, were calculated using standard four-parametric curve fitting. IC50 is defined as the compound concentration at which the MTT or CTG signal is reduced to 50% of that measured for the control. Results shown in Table 14 represent the mean of at least 2 independent experiments.

T1 sequence (Q07817 whole entry): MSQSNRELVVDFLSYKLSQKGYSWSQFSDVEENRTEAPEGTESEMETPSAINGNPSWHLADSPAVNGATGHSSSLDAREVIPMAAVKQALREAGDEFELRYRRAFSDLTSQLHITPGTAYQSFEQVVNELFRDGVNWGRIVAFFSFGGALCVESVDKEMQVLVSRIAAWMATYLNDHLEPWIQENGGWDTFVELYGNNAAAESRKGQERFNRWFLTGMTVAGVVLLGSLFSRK

As a reminder, the DC50 is the concentration giving 50% degradation. As a reminder, the IC50 is the concentration needed to halve the response being measured. Take `Cc1cc(N(CCCCN(C)C(=O)CCCCCCCCCNc2cccc3c2C(=O)N(C2CCC(=O)NC2=O)C3=O)c2ccc(-c3cnn(CC45CC6(C)CC(C)(C4)CC(OCCN(C)C)(C6)C5)c3C)c(C(=O)O)n2)nnc1Nc1nc2ccccc2s1` (stereo not shown) [Example 92, 6-[[6-(1,3-benzothiazol-2-ylamino)-5-methyl-pyridazin-3-yl]-[4-[10-[[2-(2,6-dioxo-3-piperidyl)-1,3-dioxo-isoindolin-4-yl]amino]decanoyl-methyl-amino]butyl]amino]-3-[1-[[3-[2-(dimethylamino)ethoxy]-5,7-dimethyl-1-adamantyl]methyl]-5-methyl-pyrazol-4-yl]pyridine-2-carboxylic acid]: half-maximal degradation in test [1] (DC50) was put at 0.954 nM. Also, in test [2], the IC50 stood at 14.9 nM.

`Cc1c(Nc2nc3ccccc3s2)nnc2c1CCCN2c1ccc(-c2cnn(CC34CC5(C)CC(C)(C3)CC(OCCN(C)CCCCCCCCCCCC(=O)N3CCC(c6ccc7c(c6)CN(C6CCC(=O)NC6=O)C7=O)CC3)(C5)C4)c2C)c(C(=O)O)n1` (stereo not shown) [Example 69, 6-[3-(1,3-benzothiazol-2-ylamino)-4-methyl-6,7-dihydro-5H-pyrido[2,3-c]pyridazin-8-yl]-3-[1-[[3-[2-[[12-[4-[2-(2,6-dioxo-3-piperidyl)-1-oxo-isoindolin-5-yl]-1-piperidyl]-12-oxo-dodecyl]-methyl-amino]ethoxy]-5,7-dimethyl-1-adamantyl]methyl]-5-methyl-pyrazol-4-yl]pyridine-2-carboxylic acid] registered a DC50 in test [1] of 0.711 nM. For the same compound, in test [2], the IC50 came to 5.14 nM.

In the case of `Cc1c(Nc2nc3ccccc3s2)nnc2c1CCCN2c1ccc(-c2cnn(CC34CC5(C)CC(C)(C3)CC(OCCN(C)CCCCCCCCCCCCCCCCOc3ccc6c(c3)C(=O)N(C3CCC(=O)NC3=O)C6=O)(C5)C4)c2C)c(C(=O)O)n1` (stereo not shown) [Example 147, 6-[3-(1,3-benzothiazol-2-ylamino)-4-methyl-6,7-dihydro-5H-pyrido[2,3-c]pyridazin-8-yl]-3-[1-[[3-[2-[16-[2-(2,6-dioxo-3-piperidyl)-1,3-dioxo-isoindolin-5-yl]oxyhexadecyl-methyl-amino]ethoxy]-5,7-dimethyl-1-adamantyl]methyl]-5-methyl-pyrazol-4-yl]pyridine-2-carboxylic acid], the DC50 in test [1] was greater than 316 nM. Besides, the midpoint of inhibition in test [2], the IC50, lay at 5.34 nM.

`Cc1c(Nc2nc3ccccc3s2)nnc2c1CCCN2c1ccc(-c2cnn(CC34CC5(C)CC(C)(C3)CC(OCCN(C)CCCCCOc3ccc6c(c3)C(=O)N(C3CCC(=O)NC3=O)C6=O)(C5)C4)c2C)c(C(=O)O)n1` (stereo not shown) [Example 107, 6-[3-(1,3-benzothiazol-2-ylamino)-4-methyl-6,7-dihydro-5H-pyrido[2,3-c]pyridazin-8-yl]-3-[1-[[3-[2-[5-[2-(2,6-dioxo-3-piperidyl)-1,3-dioxo-isoindolin-5-yl]oxypentyl-methyl-amino]ethoxy]-5,7-dimethyl-1-adamantyl]methyl]-5-methyl-pyrazol-4-yl]pyridine-2-carboxylic acid] yielded a DC50 in test [1] of 0.739 nM. The compound also had an IC50 in test [2] of 4.72 nM.

As usually defined, the remaining activity is the signal under treatment as a percentage of the control signal. On to `Cc1c(Nc2nc3ccccc3s2)nnc2c1CCCN2c1ccc(-c2cnn(CC34CC5(C)CC(C)(C3)CC(OCCN(C)CCOCCOCCOCCOCCNc3cccc6c3C(=O)N(C3CCC(=O)NC3=O)C6=O)(C5)C4)c2C)c(C(=O)O)n1` (stereo not shown) [Example 132, 6-[3-(1,3-benzothiazol-2-ylamino)-4-methyl-6,7-dihydro-5H-pyrido[2,3-c]pyridazin-8-yl]-3-[1-[[3-[2-[2-[2-[2-[2-[2-[[2-(2,6-dioxo-3-piperidyl)-1,3-dioxo-isoindolin-4-yl]amino]ethoxy]ethoxy]ethoxy]ethoxy]ethyl-methyl-amino]ethoxy]-5,7-dimethyl-1-adamantyl]methyl]-5-methyl-pyrazol-4-yl]pyridine-2-carboxylic acid], for which, in test [1], the remaining activity at 0.01 µM came out at 108% and the remaining activity at 0.1 µM was 103%. In addition, in test [2], the IC50 turned out to be 26.6 nM.

Compound `Cc1c(Nc2nc3ccccc3s2)nnc2c1CCCN2c1ccc(-c2cnn(CC34CC5(C)CC(C)(C3)CC(OCCN(C)CCCCCCCCCOc3ccc6c(c3)C(=O)N(C3CCC(=O)NC3=O)C6=O)(C5)C4)c2C)c(C(=O)O)n1` (stereo not shown) [Example 104, 6-[3-(1,3-benzothiazol-2-ylamino)-4-methyl-6,7-dihydro-5H-pyrido[2,3-c]pyridazin-8-yl]-3-[1-[[3-[2-[9-[2-(2,6-dioxo-3-piperidyl)-1,3-dioxo-isoindolin-5-yl]oxynonyl-methyl-amino]ethoxy]-5,7-dimethyl-1-adamantyl]methyl]-5-methyl-pyrazol-4-yl]pyridine-2-carboxylic acid] displayed a DC50 in test [1] of 0.0184 nM. For the same compound, half-maximal inhibition in test [2] (IC50) was put at 1.74 nM.

In the case of `Cc1ncsc1-c1ccc([C@H](C)NC(=O)[C@@H]2C[C@@H](O)CN2C(=O)[C@@H](NC(=O)CCCCCCCCCCCCCN(C)CCOC23CC4(C)CC(C)(CC(Cn5ncc(-c6ccc(N7CCCc8c7nnc(Nc7nc9ccccc9s7)c8C)nc6C(=O)NC(C)C)c5C)(C4)C2)C3)C(C)(C)C)cc1` [Example 157, 6-[3-(1,3-benzothiazol-2-ylamino)-4-methyl-6,7-dihydro-5H-pyrido[2,3-c]pyridazin-8-yl]-3-[1-[[3-[2-[[14-[[(1S)-1-[(2S,4R)-4-hydroxy-2-[[(1S)-1-[4-(4-methylthiazol-5-yl)phenyl]ethyl]carbamoyl]pyrrolidine-1-carbonyl]-2,2-dimethyl-propyl]amino]-14-oxo-tetradecyl]-methyl-amino]ethoxy]-5,7-dimethyl-1-adamantyl]methyl]-5-methyl-pyrazol-4-yl]-N-isopropyl-pyridine-2-carboxamide], it took 18.8 nM to reach half-maximal degradation in test [1] (DC50). Moreover, the IC50 in test [2] is 7.62 nM.

For the compound `Cc1c(Nc2nc3ccccc3s2)nnc2c1CCCN2c1ccc(-c2cnn(CC34CC5(C)CC(C)(C3)CC(OCCN(C)CCCCCCCCCC(=O)N3CCC(c6ccc7c(c6)CN(C6CCC(=O)NC6=O)C7=O)CC3)(C5)C4)c2C)c(C(=O)O)n1` (stereo not shown) [Example 70, 6-[3-(1,3-benzothiazol-2-ylamino)-4-methyl-6,7-dihydro-5H-pyrido[2,3-c]pyridazin-8-yl]-3-[1-[[3-[2-[[10-[4-[2-(2,6-dioxo-3-piperidyl)-1-oxo-isoindolin-5-yl]-1-piperidyl]-10-oxo-decyl]-methyl-amino]ethoxy]-5,7-dimethyl-1-adamantyl]methyl]-5-methyl-pyrazol-4-yl]pyridine-2-carboxylic acid], in test [1], the remaining activity at 0.01 µM is 101% and the remaining activity at 0.1 µM was 90%. The compound further returned an IC50 in test [2] of 7.48 nM.

`Cc1c(Nc2nc3ccccc3s2)nnc2c1CCCN2c1ccc(-c2cnn(CC34CC5(C)CC(C)(C3)CC(OCCN(C)CCCCCCCCCCCOc3ccc6c(c3)C(=O)N(C3CCC(=O)NC3=O)C6=O)(C5)C4)c2C)c(C(=O)O)n1` (stereo not shown) [Example 105, 6-[3-(1,3-benzothiazol-2-ylamino)-4-methyl-6,7-dihydro-5H-pyrido[2,3-c]pyridazin-8-yl]-3-[1-[[3-[2-[11-[2-(2,6-dioxo-3-piperidyl)-1,3-dioxo-isoindolin-5-yl]oxyundecyl-methyl-amino]ethoxy]-5,7-dimethyl-1-adamantyl]methyl]-5-methyl-pyrazol-4-yl]pyridine-2-carboxylic acid] yielded a DC50 in test [1] of 0.0447 nM. Further, the IC50 in test [2] is 1.75 nM.

`Cc1c(Nc2nc3ccccc3s2)nnc2c1CCCN2c1ccc(-c2cnn(CC34CC5(C)CC(C)(C3)CC(OCCN(C)CCCCCC(=O)N3CCC(c6ccc7c(c6)CN(C6CCC(=O)NC6=O)C7=O)CC3)(C5)C4)c2C)c(C(=O)O)n1` (stereo not shown) [Example 67, 6-[3-(1,3-benzothiazol-2-ylamino)-4-methyl-6,7-dihydro-5H-pyrido[2,3-c]pyridazin-8-yl]-3-[1-[[3-[2-[[6-[4-[2-(2,6-dioxo-3-piperidyl)-1-oxo-isoindolin-5-yl]-1-piperidyl]-6-oxo-hexyl]-methyl-amino]ethoxy]-5,7-dimethyl-1-adamantyl]methyl]-5-methyl-pyrazol-4-yl]pyridine-2-carboxylic acid] registered a DC50 in test [1] greater than 316 nM. In addition, in test [2], the IC50 was 24.2 nM.
